Where a name gives a salt, the structure may show the parent alone.
Experiments:
[1] = test system: tumor-bearing mouse model (non-small cell lung cancer model accompanied by ghrelin resistance); test: Example 1: food intake and body weight in tumor-bearing mouse model (A549 cells transplanted into nude mice); format: in vivo; settings: for body weight after 5-day administration / cumulative food intake in the period of administration: vs distilled water group
Description: Using tumor-bearing model animals where adenocarcinomic human alveolar basal epithelial cells, A549 cells, were transplanted into nude mice, examination was performed about drug efficacy of Compound 1 on the food intake and the body weight.
(§1) Subculture of A549 cells was performed using a 10% FBS-containing RPMI1640 culture medium. In evaluation of drug efficacy, 6-week-old female BALB/C slc/nu/nu mice (Japan SLC, Inc.) were purchased, and were used after habituated for one week. Tumor-bearing model animals were prepared as follows. Specifically, 2.5×10^7 cells of A549 cells were transplanted to the right abdominal region of each mouse by subdermal administration. On Day 43 from the cell transplantation, the mice were divided into groups to have an equal averaged tumor volume.
The effects of a variety of compounds on food intake and body weight were examined as follows. Specifically, for 5 days from Day 44 to Day 48 from the cell transplantation, the compounds were orally administered daily, and the food intake and the body weight were measured at the same time. The doses of Compound 1 were 0.25 mg/kg (6 animals), 0.5 mg/kg (6 animals), and 1 mg/kg (6 animals). To verify that the model animals are in a ghrelin resistant state, anamorelin hydrochloride (MedChemExpress) was used at 30 mg/kg (6 animals). The food intake was calculated by subtracting the weight of feed on the previous day of measurement from the weight of feed on the day of measurement.
In FIG. 1, the ordinate represents the cumulative food intake in the period of administration of the compounds (from the start of administration to the day next to the final day of administration). In FIG. 2, the ordinate represents the percentage of changes in body weight on Day 6 from the start of administration of the compounds (the day next to the final day of administration) (after 5-day administration) (relative to the body weight measured immediately before the first administration of the compound designated as 100%). In the abscissas of FIGS. 1 and 2, “Distilled water” represents distilled water-treated group, “Compound 1 0.25” represents Compound 1-treated group at 0.25 mg/kg, “Compound 1 0.5” represents Compound 1-treated group at 0.5 mg/kg, “Compound 1 1” represents Compound 1-treated group at 1 mg/kg, and “Anamorelin” represents anamorelin hydrochloride-treated group at 30 mg/kg. In FIGS. 1 and 2, the mark “*” represents a statistical significance (*: P<0.05) in comparison with distilled water-treated group (Dunnett's multiple test).

[2] = test system: tumor-bearing mouse model (non-small cell lung cancer model accompanied by ghrelin resistance); test: Example 2: food intake and body weight in tumor-bearing mouse model (A549 cells transplanted into nude mice); format: in vivo
Description: Using tumor-bearing model animals where adenocarcinoma human alveolar basal epithelial cells, A549 cells, were transplanted into nude mice, examination was performed about drug efficacy of Compounds 1 and 2 on the food intake and the body weight.
as §1, with “7-week old” for “6-week-old”
The effects of a variety of compounds on food intake and body weight were examined as follows. Specifically, for 5 days from Day 44 to Day 48 from the cell plantation, Compound 2 was intraperitoneally administered daily, Compound 1 and anamorelin hydrochloride were orally administered daily, and the amount of feed and the body weight were measured at the same time. Compound 2 was used at 1 mg/kg (9 animals), and Compound 1 was used at 0.25 mg/kg (9 animals), which is the lowest dose to exert drug efficacy. To verify that the model animals are in a ghrelin resistant state, anamorelin hydrochloride was used at 30 mg/kg (9 animals) herein. The food intake was calculated by subtracting the weight of feed on the previous day of measurement from the weight of feed on the day of measurement.
In FIG. 3, the ordinate represents the cumulative food intake in the period of administration of the compounds (from the start of administration to the day next to the final day of administration). In FIG. 4, the ordinate represents the percentage of changes in body weight on Day 6 from the start of administration of the compounds (the day next to the final day of administration) (after 5-day administration) (relative to the body weight measured immediately before the first administration of the compound designated as 100%). In the abscissas of FIGS. 3 and 4, “Normal saline” represents a group treated intraperitoneally with normal saline, “Compound 2” represents a group treated intraperitoneally with Compound 2 at 1 mg/kg, “Compound 1” represents a group treated orally with Compound 1 at 0.25 mg/kg, and “Aanamorelin” represents a group treated orally with anamorelin hydrochloride at 30 mg/kg. In FIGS. 3 and 4, the mark “*” represents a statistical significance (*: P<0.05) compared to the group treated with normal saline (Dunnett's multiple test).

[3] = test system: model of non-small cell lung cancer to which A549 cells have been transplanted subcutaneously; settings: cited from earlier work
normal animal = settings: anamorelin hydrochloride 30 mg/kg; cited from earlier work
[4] = anamorelin hydrochloride 30 mg/kg oral daily for 5 days
[5] = Compound 1 0.25 mg/kg oral daily for 5 days, compared with Compound 2 1 mg/kg i.p.
[6] = Compound 2 1 mg/kg intraperitoneal daily for 5 days, vs normal saline group, Dunnett P<0.05

In the case of `CN(C)N(C)C(=O)[C@@]1(Cc2ccccc2)CCCN(C(=O)[C@@H](Cc2c[nH]c3ccccc23)NC(=O)C(C)(C)N)C1` [anamorelin hydrochloride, reference compound], the “body weight after 5-day administration” value [1, 4] is reported as “any statistically significant increasing effect in food intake or increasing effect in body weight was not observed”, the “cumulative food intake in the period of administration” value (shortened to “cumulative food intake in the period”) [1, 4] is reported as “any statistically significant increasing effect in food intake or increasing effect in body weight was not observed” and the “therapeutic effects on cachexia” value ([2]; anamorelin hydrochloride 30 mg/kg oral, administered from Day 44 after cell transplantation (Examples 1 and 2)) is reported as “no therapeutic effects were observed on cachexia”. For the same molecule, the body weight ([3]; anamorelin hydrochloride 30 mg/kg, A549 cells transplanted subcutaneously in the abdominal region) was “increase in body weight”, the “therapeutic effects on cachexia” value ([3]; anamorelin hydrochloride administered on Day 23 from cell transplantation) was “achieved therapeutic effects on cachexia” and the body weight (normal animal) was “increase in body weight”.
For `CN(C(=O)/C=C/c1ccoc1)[C@@H]1CC[C@@]2(O)[C@H]3Cc4ccc(O)c5c4[C@@]2(CCN3CC2CC2)[C@H]1O5` [Compound 1, (−)-17-(cyclopropylmethyl)-3,14β-dihydroxy-4,5α-epoxy-6β-[N-methyl-trans-3-(3-furyl)acrylamide]morphinan hydrochloride], the “body weight after 5-day administration” value ([1]; Compound 1 0.25 mg/kg oral daily for 5 days) was “tendency of an increase in body weight”, the “body weight after 5-day administration” value ([1]; Compound 1 0.5 mg/kg oral daily for 5 days, Dunnett P<0.05) was “statistically significant increasing effect in body weight” and the “body weight after 5-day administration” value ([1]; Compound 1 1 mg/kg oral daily for 5 days, Dunnett P<0.05) was “statistically significant increasing effect in body weight”. The “cumulative food intake in the period” value ([1]; Compound 1 0.25, 0.5 and 1 mg/kg oral daily for 5 days (Day 44-48 from transplantation), Dunnett P<0.05) was “statistically significant increasing effect in food intake”, the “lowest dose to exert drug efficacy” value ([1]; oral, tumor-bearing mouse model) was 0.25 mg/kg and the “body weight after 5-day administration” value [2, 5] was “increasing effect in body weight higher than those exhibited by Compound 2”. The “cumulative food intake in the period” value [2, 5] was “increasing effect in food intake and the increasing effect in body weight higher than those exhibited by Compound 2”.
In the case of `CC(C)C[C@@H](NC(=O)[C@@H](Cc1ccccc1)NC(=O)[C@H](N)Cc1ccccc1)C(=O)N[C@H](CCCCN)C(=O)N1CCC(N)(C(=O)O)CC1` [Compound 2, 4-amino-1-[(2R)-6-amino-2-[(2R)-2-[(2R)-2-[(2R)-2-amino-3-phenylpropanamide]-3-phenylpropanamide]-4-methylpentanamide]hexanoyl]piperidine-4-carboxylic acid], the “body weight after 5-day administration” value [2, 6] is reported as “statistically significant increasing effect in body weight” and the “cumulative food intake in the period” value [2, 6] is reported as “statistically significant increasing effect in food intake”.

From US12721845B2, “Therapeutic or prophylactic agent for cachexia accompanied by ghrelin resistance” (Toray Industries, Inc., priority 2021, dated 2026)
